Paper PMC8813842 (Clinical Pharmacokinetics, 2021)
“Also recorded” adds a separate entry of the source.

How the values were obtained:
[1] = Population PK of allopurinol and oxypurinol in HIE neonates; type: in vivo, human; settings: for Patients reaching the predefined AUC12 target: ALBINO study; for AUC: human, plasma, intravenous, 20 mg/kg; for Difference in CL between males and females: sex as covariate on CL; for Difference in CL between TH and non-TH patients: therapeutic hypothermia as categorical covariate on CL
xanthine oxidase (XO) = xanthine oxidase (XO) (Homo sapiens, UniProt P47989); settings: in the first 24 h after birth
xanthine oxidase (XO), sequence (P47989 whole entry): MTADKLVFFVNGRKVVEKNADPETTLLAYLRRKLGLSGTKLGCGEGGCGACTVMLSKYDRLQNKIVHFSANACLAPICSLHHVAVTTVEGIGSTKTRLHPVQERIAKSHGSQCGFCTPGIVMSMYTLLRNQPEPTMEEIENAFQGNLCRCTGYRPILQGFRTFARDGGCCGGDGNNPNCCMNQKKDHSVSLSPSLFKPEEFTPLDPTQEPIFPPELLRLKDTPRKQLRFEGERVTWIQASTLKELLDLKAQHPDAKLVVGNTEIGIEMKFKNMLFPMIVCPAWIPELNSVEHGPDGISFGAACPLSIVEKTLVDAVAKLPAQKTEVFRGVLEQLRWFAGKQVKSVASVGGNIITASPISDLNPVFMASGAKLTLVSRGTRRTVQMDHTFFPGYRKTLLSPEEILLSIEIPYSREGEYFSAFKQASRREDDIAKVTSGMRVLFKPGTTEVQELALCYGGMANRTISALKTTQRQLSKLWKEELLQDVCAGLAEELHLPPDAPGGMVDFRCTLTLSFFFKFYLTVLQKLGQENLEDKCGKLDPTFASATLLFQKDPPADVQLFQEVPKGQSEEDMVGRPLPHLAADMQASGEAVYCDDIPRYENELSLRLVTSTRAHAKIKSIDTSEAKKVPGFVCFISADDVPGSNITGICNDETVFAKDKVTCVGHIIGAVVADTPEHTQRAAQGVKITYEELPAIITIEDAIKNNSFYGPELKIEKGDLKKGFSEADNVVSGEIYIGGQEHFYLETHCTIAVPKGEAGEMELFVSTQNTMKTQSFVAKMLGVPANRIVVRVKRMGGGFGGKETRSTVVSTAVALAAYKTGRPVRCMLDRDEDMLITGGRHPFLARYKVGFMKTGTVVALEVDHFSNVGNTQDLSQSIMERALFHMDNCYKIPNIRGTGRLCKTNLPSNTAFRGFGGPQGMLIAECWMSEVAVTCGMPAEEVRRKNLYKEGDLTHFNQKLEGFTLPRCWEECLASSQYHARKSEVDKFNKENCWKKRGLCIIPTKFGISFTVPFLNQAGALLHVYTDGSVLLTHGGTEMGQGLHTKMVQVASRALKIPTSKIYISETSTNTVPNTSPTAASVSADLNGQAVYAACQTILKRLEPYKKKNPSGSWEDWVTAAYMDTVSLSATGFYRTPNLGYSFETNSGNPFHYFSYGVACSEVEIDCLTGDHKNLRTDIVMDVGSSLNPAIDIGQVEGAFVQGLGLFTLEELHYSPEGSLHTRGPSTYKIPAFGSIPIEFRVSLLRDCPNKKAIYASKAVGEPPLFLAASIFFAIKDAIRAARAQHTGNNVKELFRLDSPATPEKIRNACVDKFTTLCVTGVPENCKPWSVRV

[2] = renal, URAT1 most important transporter; cited from earlier work

SMILES	Patients reaching the predefined AUC12 target ([1]; TH group) [%]	Patients reaching the predefined AUC12 target ([1]; non-TH group)	AUC [1] [ng·h/mL]	Difference in CL between males and females [1]	Difference in CL between TH and non-TH patients [1]	Decrease of estimated allopurinol CL due to autoinhibition (xanthine oxidase (XO)) [%]	Glomerular filtered oxypurinol actively reabsorbed [2]
Oc1ncnc2[nH]ncc12 [allopurinol]	92	all patients reached the targets	160000 ± 62600	No significant difference	No difference; also recorded: no significant differences; also recorded: not significantly different; also recorded: Clearances of allopurinol and oxypurinol were not significantly different between TH and non-TH patients	70	–
O=c1[nH]c(=O)c2c[nH]nc2[nH]1 [oxypurinol]	61	all patients reached the targets	37400 ± 12800	No significant difference	No difference; also recorded: no significant differences; also recorded: not significantly different; also recorded: Clearances of allopurinol and oxypurinol were not significantly different between TH and non-TH patients	–	approximately 80%
